Test results taken from patent US20240368605A1, “USE OF SPLICE SWITCHING OLIGONUCLEOTIDES FOR EXON SKIPPING-MEDIATED KNOCKDOWN OF PIM2” (INSTITUT NATIONAL DE LA SANTÉ ET DE LA RECHERCHE MÉDICALE, priority 2021, published 2024).

What was measured:
Type in all cases: cell-based, human
[1] = system: plasmablasts (PB); assay: Generation of plasmablasts at D6 in the in vitro B cell differentiation model (flow cytometry); settings: SSO at 2 μM added at D4
Description: (§1) FIG. 1. Specific PIM2 inhibition affects the generation of plasmablasts • A. Diagram explaining SSO-PIM2 action. It binds to the second exon of the gene PIM2 leading in a skip of this exon during transcription and finally results to a frame shift and created an early stop-codon during translation. The protein is so a non-functional truncated protein. • B. Activated B cells were treated at D4 with an increasing dose of SSO-PIM2 and SSO-CTL (control condition) and recovered 48 hours later (at D6). PIM2 mRNA residual expression compared to the control condition adjust at 100% (mean±SD, n=3) and agarose gel of PIM2 PCR, showing exon skipping. • C. At D4, activated B cells were treated with SSO-PIM2 and SSO-CTL (control condition) at 2 μM. CD23+ aBC and PB were sorted at D6. PIM2 mRNA relative expression (mean±SD, n=4) (left) and PIM2 protein expression by western blot (middle) and immunofluorescence (right) after PIM2 inhibition. • D-E. Decrease of PB generation after PIM2 inhibition. Cells were treated with SSO-PIM2 at 2 μM (D) or increase dose of the PIM inhibitor AZD1208 (PIMi as indicated, in μM) (E) and their control condition (SSO-CTL and DMSO respectively). The untreated condition is referred as “NT” (=no treatment). Left: Absolute number of PB obtained at D6 after PIM2 inhibition. […] Right: Proportion of PB evaluated at D6 by flow cytometry after treatment with SSO-PIM2 at 2 μM. […]

[2] = system: IRF4, PRDM1, XBPIS, BACH2, BCL6, SPIB, IRF8 and PAX5; assay: Transcription factor mRNA relative expression in generated PBs; settings: SSO-PIM2 present
Description: as §1

[3] = system: p21^Cip1/WAF1; assay: CDKN1A gene and p21^Cip1/WAF1 protein expression in PBs
Text: Like p27^Kip1, p21^Cip1/WAF1 is a tight-binding inhibitor of CDKs and inhibits cell cycle entry into S phase (Elledge et al., 1996). Plasmablast commitment leads to a significant increase of the CDKN1A gene, which encodes p21^Cip1/WAF1, and this independently to the expression of TP53 (data not shown). […] We then wondered whether PIM2 could modify p21^Cip1/WAF1 expression. […] To address this scenario, we developed endogenous protein immunoprecipitation (IP) and found in generated PBs and XG21 cell line as well that PIM2, p21^Cip1/WAF1 and HSP90β form a cytoplasmic multiprotein complex (data not shown).

5′-CCTCATGACGGATACCTGGAGTC-3′ (all phosphorodiamidate morpholino (PMO)) [SSO-PIM2]
generated PB at D6 [1]: severe decrease in generated PB
expression of key transcription factors involved in B cell differentiation in generated PBs [2]: not affected
CDKN1A gene upregulation in PBs [3]: did not interfere with CDKN1A gene upregulation
p21^Cip1/WAF1 protein expression and localization ([3]; PBs): decreased dramatically its cytoplasmic expression without nuclear relocalization
